In patent US20240150423A1, “GLP-1 ANALOGUE-MODIFIED DIMERS WITH DIFFERENT CONFIGURATIONS, PREPARATION METHOD THEREOF, AND APPLICATION THEREOF IN TREATMENT OF TYPE II DIABETES” (Nanjing Finepeptide Biopharmaceutical Co.,Ltd, priority 2019, published 2024):
Positions of bridges follow the written chain, without caps; N, C: chain ends. Non-standard residues stand in square brackets, D forms with d. Chains are numbered I, II in the order given. No end group written: not given here. bAib = not defined here; Aib = CC(C)(N)C(=O)O; βAla = NCCC(=O)O

What follows are substances tested on Normal Kunming (KM) mice (assay: multiple OGTT (mOGTT): hypoglycemic duration after a single administration). Conditions: monomeric peptides, single injection at the same dose (1.126 nmol), subcutaneous.
Format: in vivo
Text: • 1. Methods: Normal Kunming (KM) mice (purchased from Guangdong Animal Center) were used for oral glucose tolerance test (OGTT) to obtain the hypoglycemic activity and durability of drug. […] The blood glucose meter and blood glucose test paper were from Bayer […]. The average blood glucose of each group was used as an evaluation standard: When the average blood glucose of experimental group was higher than that of the NaCl control group for two times, the measurement stopped and the hypoglycemic period compared to the blank control group was the effective duration. • 2. Results • 2.1 single OGTTs: after a single administration, the mice were orally administered glucose once and measured the blood glucose from the tail blood at 0, 10, 20, 40, 60 and 120 min. […] The duration of each monomer group was about 1⁄2-1⁄4 of the duration of its corresponding dimer group. […] Therefore, the 2G3 peptide was selected for treating type II diabetes (T2D) in vivo and subsequent experiments.

Substance	Hypoglycemic [days]
His-aAib-Glu-Gly-Thr-Phe-Thr-Ser-Asp-Val-Ser-Cys--Tyr-Leu-Glu-Gly-Gln-Ala-Ala-Lys[N-ϵ-(N-α-oleoyl-L-γ-glutamyl)]-Glu-Phe-Ile-Ala-Trp-Leu-Val-Arg-Gly-Arg-Gly-NH2 (HXEGTFTSDVSCYLEGQAAXEFIAWLVRGRG; Aib; oleoyl-gamma-Glu on Lys; C-terminal amide; Sequence is synthesized; (2)..(2) Xaa is aAib; (20)..(20) Xaa is 26Lys[N-e-(N-a-oleoyl-L-g-glutamyl)]; (31)..(31) N-terminal) [G6 series 47]	8
His-βAla-Glu-Gly-Thr-Phe-Thr-Ser-Asp-Val-Cys-Ser-Tyr-Leu-Glu-Gly-Gln-Ala-Ala-Lys[N-ϵ-(N-α-oleoyl)]-Glu-Phe-Ile-Ala-Trp-Leu-Val-Arg-Gly-Arg-Gly-NH2 (HXEGTFTSDVCSYLEGQAAXEFIAWLVRGRG; β-amino acid; oleoyl on Lys; C-terminal amide; Sequence is synthesized; (2)..(2) Xaa is bAla; (20)..(20) Xaa is 26Lys[N-e-(N-a-oleoyl-L-g-glutamyl)]; (31)..(31) N-terminal) [G4 series 31]	5
His-aAib-Glu-Gly-Thr-Phe-Thr-Ser-Asp-Val-Ser-Cys-Tyr-Leu-Glu-Gly-Gln-Ala-Ala-Lys[N-ϵ-(N-α-Palmitoyl-L-γ-glutamyl)]-Glu-Phe-Ile-Ala-Trp-Leu-Val-Lys[N-ϵ-(N-α-Palmitoyl-L-γ-glutamyl)]-Gly-Arg-Gly-NH2 (HXEGTFTSDVSCYLEGQAAXEFIAWLVXGRG; Aib; two palmitoyl-gamma-Glu on Lys; C-terminal amide; Sequence is synthesized; (2)..(2) Xaa is aAib; (20)..(20) Xaa is 26Lys[N-e-(N-a-palmitoyl-L-g-glutamyl)]; (28)..(28) Xaa is 26Lys[N-e-(N-a-palmitoyl-L-g-glutamyl)]; (31)..(31) N-terminal) [G5 series 42]	3
His-βAib-Glu-Gly-Thr-Phe-Thr-Ser-Asp-Val-Cys-Ser-Tyr-Leu-Glu-Gly-Gln-Ala-Ala-Lys[N-ϵ-(N-α-oleoyl-L-γ-glutamyl)]-Glu-Phe-Ile-Ala-Trp-Leu-Val-Arg-Gly-Arg-Gly-NH2 (HXEGTFTSDVCSYLEGQAAXEFIAWLVRGRG; βAib; oleoyl-γ-glutamyl on Lys; C-terminal amide; Sequence is synthesized; (2)..(2) Xaa is bAib; (20)..(20) Xaa is 26Lys[N-e-(N-a-oleoyl-L-g-glutamyl)]; (31)..(31) N-terminal) [G2 series 15]	5
His-aAib-Glu-Gly-Thr-Phe-Thr-Ser-Asp-Val-Cys-Ser-Tyr-Leu-Glu-Gly-Gln-Ala-Ala-Lys[N-ϵ-(N-α-Palmitoyl-γ-glutamyl)]-Glu-Phe-Ile-Ala-Trp-Leu-Val-Arg-Gly-Arg-Gly-NH2 (HXEGTFTSDVCSYLEGQAAXEFIAWLVRGRG; αAib; palmitoyl-γ-glutamyl on Lys; C-terminal amide; Sequence is synthesized; (2)..(2) Xaa is aAib; (20)..(20) Xaa is 26Lys[N-e-(N-a-Palmitoyl-g-glutamyl)]; (31)..(31) N-terminal) [G2 series 12]	6
His-Ala-Glu-Gly-Thr-Phe-Thr-Ser-Asp-Val-Cys-Ser-Tyr-Leu-Glu-Gly-Gln-Ala-Ala-Lys[N-ϵ-(N-α-oleoyl)]-Glu-Phe-Ile-Ala-Trp-Leu-Val-Arg-Gly-Arg-Gly-OH (HAEGTFTSDVCSYLEGQAAXEFIAWLVRGRG; oleoyl on Lys; C-terminal acid; Sequence is synthesized; (20)..(20) Xaa is 26Lys[N-e-(N-a-oleoyl-L-g-glutamyl)]; (31)..(31) C-terminal) [G4 series 26]	4
His-βAla-Glu-Gly-Thr-Phe-Thr-Ser-Asp-Val-Ser-Cys-Tyr-Leu-Glu-Gly-Gln-Ala-Ala-Lys[N-ϵ-(N-α-oleoyl-L-γ-glutamy)]-Glu-Phe-Ile-Ala-Trp-Leu-Val-Arg-Gly-Arg-Gly-NH2 (HXEGTFTSDVSCYLEGQAAXEFIAWLVRGRG; beta-amino acid; oleoyl-gamma-Glu on Lys; C-terminal amide; Sequence is synthesized; (2)..(2) Xaa is bAla; (20)..(20) Xaa is 26Lys[N-e-(N-a-oleoyl-L-g-glutamyl)]; (31)..(31) N-terminal) [G6 series 50]	4
His-aAib-Glu-Gly-Thr-Phe-Thr-Ser-Asp-Val-Ser-Cys-Tyr-Leu-Glu-Gly-Gln-Ala-Ala-Lys-Glu-Phe-Ile-Ala-Trp-Leu-Val-Lys-aAib-Arg-NH2 (H[Aib]EGTFTSDVSCYLEGQAAKEFIAWLVK[Aib]R-NH2; also: disulfide-linked homodimer via Cys) [G7 series 53]	3
His-Ala-Glu-Gly-Thr-Phe-Thr-Ser-Asp-Val-Cys-Ser-Tyr-Leu-Glu-Gly-Gln-Ala-Ala-Lys[N-ϵ-(N-α-oleoyl)]-Glu-Phe-Ile-Ala-Trp-Leu-Val-Arg-Gly-Arg-Gly-NH2 (HAEGTFTSDVCSYLEGQAAXEFIAWLVRGRG; oleoyl on Lys; C-terminal amide; Sequence is synthesized; (20)..(20) Xaa is 26Lys[N-e-(N-a-oleoyl-L-g-glutamyl)]; (31)..(31) N-terminal) [G4 series 27]	6
His-aAib-Glu-Gly-Thr-Phe-Thr-Ser-Asp-Val-Cys-Ser-Tyr-Leu-Glu-Gly-Gln-Ala-Ala-Lys[N-ϵ-(N-α-Palmitoyl)]-Glu-Phe-Ile-Ala-Trp-Leu-Val-Arg-Gly-Arg-Gly-NH2 (HXEGTFTSDVCSYLEGQAAXEFIAWLVRGRG; αAib; palmitoyl on Lys; C-terminal amide; Sequence is synthesized; (2)..(2) Xaa is aAib; (20)..(20) Xaa is 26Lys[N-e-(N-a-palmitoyl-L-g-glutamyl)]; (31)..(31) N-terminal) [G4 series 28]	7

Same assay, conditions: single injection at the same dose (1.126 nmol), subcutaneous

Substance	Hypoglycemic duration [days]
2G6 series 50: disulfide-linked homodimer of monomer SEQ ID NO: 50 (HXEGTFTSDVSCYLEGQAAXEFIAWLVRGRG; disulfide-linked homodimer; Sequence is synthesized; (2)..(2) Xaa is bAla; (20)..(20) Xaa is 26Lys[N-e-(N-a-oleoyl-L-g-glutamyl)]; (31)..(31) N-terminal)	16
2G2 series 8: disulfide-linked homodimer of monomer SEQ ID NO: 8 (HAEGTFTSDVCSYLEGQAAXEFIAWLVRGRG; not fully specified; disulfide-linked homodimer; Sequence is synthesized; (20)..(20) Xaa is Xaa is 26Lys[N-e-(N-a-Palmitoyl-g-glutamyl)]; (31)..(31) N-terminal)	7
2G3 series 23: disulfide-linked homodimer of monomer SEQ ID NO: 23 (HAEGTFTSDVSCYLEGQAAXEFIAWLVRGRG; disulfide-linked homodimer; Sequence is synthesized; (20)..(20) Xaa is 26Lys[N-e-(N-a-oleoyl-L-g-glutamyl)]; (31)..(31) N-terminal)	17
2G5 series 41: disulfide-linked homodimer of monomer SEQ ID NO: 41 (HAEGTFTSDVSCYLEGQAAXEFIAWLVXGRG; disulfide-linked homodimer; Sequence is synthesized; (20)..(20) Xaa is 26Lys[N-e-(N-a-palmitoyl-L-g-glutamyl)]; (28)..(28) Xaa is 26Lys[N-e-(N-a-palmitoyl-L-g-glutamyl)]; (31)..(31) N-terminal)	5
2G2 series 19: disulfide-linked homodimer of monomer SEQ ID NO: 19 (chain 1 H[βAla]EGTFTSDVCSYLEGQAAKEFIAWLVR[βAla]R; chain 2 H[βAla]EGTFTSDVCSYLEGQAAKEFIAWLVR[βAla]R; disulfide I:11-II:11 (inferred); not fully specified (C-terminus))	3
2G5 series 43: disulfide-linked homodimer of monomer SEQ ID NO: 43 (HXEGTFTSDVSCYLEGQAAXEFIAWLVXGRG; disulfide-linked homodimer; Sequence is synthesized; (2)..(2) Xaa is bAib; (20)..(20) Xaa is 26Lys[N-e-(N-a-palmitoyl-L-g-glutamyl)]; (28)..(28) Xaa is 26Lys[N-e-(N-a-palmitoyl-L-g-glutamyl)]; (31)..(31) N-terminal)	7
2G8 series 67: disulfide-linked homodimer of monomer SEQ ID NO: 67 (H[bAib]EGTFTCDVSSYLEGQAAKEFIAWLVR[bAib]R; reading uncertain; also: disulfide-linked homodimer of two chains, disulfide at 8, other end not in the chain)	3
2G3 series 21: disulfide-linked homodimer of monomer SEQ ID NO: 21 (HAEGTFTSDVSCYLEGQAAXEFIAWLVRGRG; disulfide-linked homodimer; Sequence is synthesized; (20)..(20) Xaa is 26Lys[N-e-(N-a-oleoyl-L-g-glutamyl)]; (31)..(31) C-terminal)	14
2G4 series 39: disulfide-linked homodimer of monomer SEQ ID NO: 39 (HXEGTFTSDVSCYLEGQAAXEFIAWLVRGRG; disulfide-linked homodimer; Sequence is synthesized; (2)..(2) Xaa is bAla; (20)..(20) Xaa is 26Lys[N-e-(N-a-oleoyl-L-g-glutamyl)]; (31)..(31) N-terminal)	16
